Source: the kinase profiling compilation of Christmann-Franck et al. (2016)

Legend:
Assay in all cases: Caliper, Mobility shift assay off-chip
PAK3 (human) = PAK3 (human) (UniProt O75914)
MAP4K2 (human) = MAP4K2 (human) (UniProt Q12851)
FES (human) = FES (human) (UniProt P07332)
MARK4 (human) = MARK4 (human) (UniProt Q96L34)
PHKG1 (human) = PHKG1 (human) (UniProt Q16816)
ABL2 (human) = ABL2 (human) (UniProt P42684)
LATS2 (human) = LATS2 (human) (UniProt Q9NRM7); conditions: compound 0.02 µM
DYRK2 (human) = DYRK2 (human) (UniProt Q92630)
ALK EML4 (human) = ALK EML4 (human) (UniProt Q9HC35+Q9UM73)
MYLK2 (human) = MYLK2 (human) (UniProt Q9H1R3)
JAK1 JH1 JH2 (human) = JAK1 JH1 JH2 (human) (UniProt P23458)
PDGFRA (human) = PDGFRA (human) (UniProt P16234)
EPHB4 (human) = EPHB4 (human) (UniProt P54760)
MAP4K4 (human) = MAP4K4 (human) (UniProt O95819)
PAK2 (human) = PAK2 (human) (UniProt Q13177)
WNK1 (human) = WNK1 (human) (UniProt Q9H4A3)
PAK1 (human) = PAK1 (human) (UniProt Q13153)
PAK1 (human), sequence (Q13153 whole entry, looked up): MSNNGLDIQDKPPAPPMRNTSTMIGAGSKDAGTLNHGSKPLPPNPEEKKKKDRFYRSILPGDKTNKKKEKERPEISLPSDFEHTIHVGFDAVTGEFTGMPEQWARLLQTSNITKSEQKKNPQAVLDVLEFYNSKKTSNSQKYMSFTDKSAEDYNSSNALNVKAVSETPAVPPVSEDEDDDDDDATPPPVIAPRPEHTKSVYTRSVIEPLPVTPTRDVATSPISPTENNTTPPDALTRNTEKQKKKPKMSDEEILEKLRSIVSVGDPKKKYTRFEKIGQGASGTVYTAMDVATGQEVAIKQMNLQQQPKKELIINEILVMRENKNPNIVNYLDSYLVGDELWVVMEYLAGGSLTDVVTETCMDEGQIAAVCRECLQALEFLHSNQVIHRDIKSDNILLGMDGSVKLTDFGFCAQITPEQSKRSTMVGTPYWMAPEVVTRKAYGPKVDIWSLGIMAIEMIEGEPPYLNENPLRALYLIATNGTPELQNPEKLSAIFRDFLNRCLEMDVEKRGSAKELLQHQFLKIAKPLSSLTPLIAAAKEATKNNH

CIT (human) = CIT (human) (UniProt O14578)
CAMK2G (human) = CAMK2G (human) (UniProt Q13555)
MAPK10 (human) = MAPK10 (human) (UniProt P53779)
MAPK10 (human), sequence (P53779 whole entry, looked up): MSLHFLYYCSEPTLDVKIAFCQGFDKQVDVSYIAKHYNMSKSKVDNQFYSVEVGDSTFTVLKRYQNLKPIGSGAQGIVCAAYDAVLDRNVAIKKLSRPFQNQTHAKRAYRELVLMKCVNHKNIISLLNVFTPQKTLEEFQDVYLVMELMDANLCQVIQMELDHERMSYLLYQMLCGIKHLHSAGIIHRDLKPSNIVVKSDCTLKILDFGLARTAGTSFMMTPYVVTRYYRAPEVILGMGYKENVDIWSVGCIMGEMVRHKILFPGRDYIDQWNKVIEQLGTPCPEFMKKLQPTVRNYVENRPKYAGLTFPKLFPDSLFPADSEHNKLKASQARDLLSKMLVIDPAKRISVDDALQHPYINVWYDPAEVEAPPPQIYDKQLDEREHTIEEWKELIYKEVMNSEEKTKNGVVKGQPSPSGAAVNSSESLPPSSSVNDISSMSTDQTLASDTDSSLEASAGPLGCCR

PLK3 (human) = PLK3 (human) (UniProt Q9H4B4)
PLK3 (human), sequence (Q9H4B4 whole entry, looked up): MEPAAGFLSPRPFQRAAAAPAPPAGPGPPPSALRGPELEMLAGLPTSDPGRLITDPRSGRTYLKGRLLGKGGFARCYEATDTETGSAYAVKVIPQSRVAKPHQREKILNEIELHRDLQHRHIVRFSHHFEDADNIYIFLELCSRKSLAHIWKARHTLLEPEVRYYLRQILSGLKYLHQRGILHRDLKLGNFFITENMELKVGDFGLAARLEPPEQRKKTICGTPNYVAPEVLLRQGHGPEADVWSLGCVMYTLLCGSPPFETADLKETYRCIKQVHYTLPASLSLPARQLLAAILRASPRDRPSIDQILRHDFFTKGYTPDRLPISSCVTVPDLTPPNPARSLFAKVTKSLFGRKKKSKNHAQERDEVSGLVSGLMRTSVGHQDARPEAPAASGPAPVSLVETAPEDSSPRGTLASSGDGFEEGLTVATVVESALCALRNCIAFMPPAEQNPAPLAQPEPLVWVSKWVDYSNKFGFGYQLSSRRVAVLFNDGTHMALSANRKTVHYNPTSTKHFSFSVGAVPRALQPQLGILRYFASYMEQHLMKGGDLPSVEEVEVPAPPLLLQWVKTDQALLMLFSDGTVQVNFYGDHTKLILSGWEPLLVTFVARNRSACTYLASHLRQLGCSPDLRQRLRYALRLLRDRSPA

TAOK2 (human) = TAOK2 (human) (UniProt Q9UL54)
PDK2 (human) = PDK2 (human) (UniProt Q15119)
ALK NPM1 (human) = ALK NPM1 (human) (UniProt P06748+Q9UM73)
FLT1 (human) = FLT1 (human) (UniProt P17948)
ROS1 (human) = ROS1 (human) (UniProt P08922)
BRSK1 (human) = BRSK1 (human) (UniProt Q8TDC3)
PRKAA2 (human) = PRKAA2 (human) (UniProt P54646)
RPS6KB2 (human) = RPS6KB2 (human) (UniProt Q9UBS0)
RPS6KB2 (human), sequence (Q9UBS0 whole entry, looked up): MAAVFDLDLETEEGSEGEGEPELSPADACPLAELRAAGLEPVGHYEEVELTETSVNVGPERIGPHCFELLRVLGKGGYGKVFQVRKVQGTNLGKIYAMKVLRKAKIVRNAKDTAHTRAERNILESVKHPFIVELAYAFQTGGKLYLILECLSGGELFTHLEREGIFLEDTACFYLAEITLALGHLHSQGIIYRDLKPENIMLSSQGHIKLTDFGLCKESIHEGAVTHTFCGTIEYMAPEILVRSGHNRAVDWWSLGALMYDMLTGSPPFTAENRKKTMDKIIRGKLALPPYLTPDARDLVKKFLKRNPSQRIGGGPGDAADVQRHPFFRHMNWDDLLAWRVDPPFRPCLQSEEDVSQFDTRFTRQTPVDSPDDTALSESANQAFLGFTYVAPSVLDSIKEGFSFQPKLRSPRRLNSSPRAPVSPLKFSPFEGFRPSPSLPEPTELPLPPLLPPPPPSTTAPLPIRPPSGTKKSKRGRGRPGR

SRPK2 (human) = SRPK2 (human) (UniProt P78362)
ALK (human) = ALK (human) (UniProt Q9UM73)
ALK (human), sequence (Q9UM73 whole entry, looked up): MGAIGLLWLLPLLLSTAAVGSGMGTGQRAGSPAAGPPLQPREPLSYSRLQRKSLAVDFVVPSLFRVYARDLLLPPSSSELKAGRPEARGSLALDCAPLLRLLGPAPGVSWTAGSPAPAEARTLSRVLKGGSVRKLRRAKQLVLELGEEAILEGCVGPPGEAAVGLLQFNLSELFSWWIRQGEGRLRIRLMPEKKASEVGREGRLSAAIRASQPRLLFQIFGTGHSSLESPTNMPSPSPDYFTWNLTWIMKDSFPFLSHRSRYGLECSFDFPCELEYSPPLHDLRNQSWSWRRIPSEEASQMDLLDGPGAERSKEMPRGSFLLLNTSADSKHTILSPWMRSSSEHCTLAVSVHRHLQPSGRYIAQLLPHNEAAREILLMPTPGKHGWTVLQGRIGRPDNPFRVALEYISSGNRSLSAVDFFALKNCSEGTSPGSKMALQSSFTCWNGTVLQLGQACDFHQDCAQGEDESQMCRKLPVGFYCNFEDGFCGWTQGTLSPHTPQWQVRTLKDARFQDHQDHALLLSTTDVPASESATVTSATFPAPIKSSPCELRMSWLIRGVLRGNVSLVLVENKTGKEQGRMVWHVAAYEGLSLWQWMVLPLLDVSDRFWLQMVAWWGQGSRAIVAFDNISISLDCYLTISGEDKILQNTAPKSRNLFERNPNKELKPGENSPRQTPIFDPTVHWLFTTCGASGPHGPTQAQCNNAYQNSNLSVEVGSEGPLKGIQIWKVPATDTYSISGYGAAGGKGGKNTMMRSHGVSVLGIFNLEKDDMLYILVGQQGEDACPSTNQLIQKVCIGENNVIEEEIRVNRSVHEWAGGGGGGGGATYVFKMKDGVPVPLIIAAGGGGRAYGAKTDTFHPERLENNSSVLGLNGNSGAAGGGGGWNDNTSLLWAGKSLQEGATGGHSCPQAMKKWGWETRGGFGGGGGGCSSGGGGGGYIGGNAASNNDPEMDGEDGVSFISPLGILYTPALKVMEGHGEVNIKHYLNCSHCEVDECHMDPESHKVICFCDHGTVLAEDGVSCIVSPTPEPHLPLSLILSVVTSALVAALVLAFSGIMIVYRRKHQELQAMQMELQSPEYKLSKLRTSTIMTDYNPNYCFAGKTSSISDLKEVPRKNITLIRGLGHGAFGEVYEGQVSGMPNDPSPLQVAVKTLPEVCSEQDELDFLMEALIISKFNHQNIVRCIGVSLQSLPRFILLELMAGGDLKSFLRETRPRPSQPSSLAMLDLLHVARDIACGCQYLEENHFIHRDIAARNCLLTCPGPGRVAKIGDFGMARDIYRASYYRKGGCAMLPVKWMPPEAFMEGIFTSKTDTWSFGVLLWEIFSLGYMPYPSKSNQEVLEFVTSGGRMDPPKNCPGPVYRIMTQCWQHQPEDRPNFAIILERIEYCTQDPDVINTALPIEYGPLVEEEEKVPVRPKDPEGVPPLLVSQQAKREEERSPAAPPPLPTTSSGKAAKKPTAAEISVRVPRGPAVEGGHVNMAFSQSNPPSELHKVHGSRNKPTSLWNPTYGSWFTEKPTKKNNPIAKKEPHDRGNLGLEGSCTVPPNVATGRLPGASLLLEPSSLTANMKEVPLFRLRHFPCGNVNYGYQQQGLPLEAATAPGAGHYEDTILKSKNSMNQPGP

CHEK2 (human) = CHEK2 (human) (UniProt O96017)
CAMK2B (human) = CAMK2B (human) (UniProt Q13554)
BTK (human) = BTK (human) (UniProt Q06187)

MARK4 (human), sequence (Q96L34 whole entry, looked up): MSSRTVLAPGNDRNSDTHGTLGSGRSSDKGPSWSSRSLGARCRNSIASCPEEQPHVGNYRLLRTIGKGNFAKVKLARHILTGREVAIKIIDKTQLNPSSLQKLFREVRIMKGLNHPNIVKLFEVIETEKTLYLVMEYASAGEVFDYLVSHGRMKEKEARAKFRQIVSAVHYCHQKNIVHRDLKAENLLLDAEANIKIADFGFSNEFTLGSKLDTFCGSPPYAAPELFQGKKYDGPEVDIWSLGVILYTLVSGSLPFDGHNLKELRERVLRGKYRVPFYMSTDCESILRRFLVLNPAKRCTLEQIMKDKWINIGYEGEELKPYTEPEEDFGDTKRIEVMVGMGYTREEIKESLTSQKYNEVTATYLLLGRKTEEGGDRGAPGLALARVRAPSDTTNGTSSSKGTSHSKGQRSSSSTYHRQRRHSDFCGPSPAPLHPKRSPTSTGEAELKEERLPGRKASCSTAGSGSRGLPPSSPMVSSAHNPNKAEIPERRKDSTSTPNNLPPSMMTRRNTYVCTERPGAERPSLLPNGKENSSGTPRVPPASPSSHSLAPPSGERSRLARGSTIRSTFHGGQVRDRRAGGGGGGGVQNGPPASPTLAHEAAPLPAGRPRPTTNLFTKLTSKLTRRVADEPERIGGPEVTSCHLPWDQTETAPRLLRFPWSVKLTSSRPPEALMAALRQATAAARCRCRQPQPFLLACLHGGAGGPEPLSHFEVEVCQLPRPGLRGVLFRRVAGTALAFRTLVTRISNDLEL
PHKG1 (human), sequence (Q16816 whole entry, looked up): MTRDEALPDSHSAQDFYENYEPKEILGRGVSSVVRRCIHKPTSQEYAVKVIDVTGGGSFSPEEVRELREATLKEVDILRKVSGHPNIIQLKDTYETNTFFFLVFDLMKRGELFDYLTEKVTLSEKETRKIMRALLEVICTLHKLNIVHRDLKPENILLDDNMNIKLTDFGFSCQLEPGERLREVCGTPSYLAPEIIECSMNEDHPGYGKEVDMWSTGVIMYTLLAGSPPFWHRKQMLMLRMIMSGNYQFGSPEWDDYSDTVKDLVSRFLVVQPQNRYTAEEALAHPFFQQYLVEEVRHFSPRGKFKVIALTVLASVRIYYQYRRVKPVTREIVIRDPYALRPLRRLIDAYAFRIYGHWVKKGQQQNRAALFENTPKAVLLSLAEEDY

CNC(=O)c1ccccc1Sc1ccc2c(/C=C/c3ccccn3)n[nH]c2c1
inhibition (PAK3 (human); compound 0.001 µM): -1.3% | inhibition (PAK3 (human); compound 0.02 µM): 7.8% | inhibition (MAP4K2 (human); compound 0.001 µM): -2.6% | inhibition (MAP4K2 (human); compound 0.02 µM): 4.8% | inhibition (FES (human); compound 0.001 µM): 2.9% | inhibition (FES (human); compound 0.02 µM): 1.5% | inhibition (MARK4 (human); compound 0.001 µM): -14.2% | inhibition (MARK4 (human); compound 0.02 µM): -4.7% | inhibition (PHKG1 (human); compound 0.001 µM): -7% | inhibition (PHKG1 (human); compound 0.02 µM): -4.4% | inhibition (ABL2 (human); compound 0.001 µM): 5.8% | inhibition (ABL2 (human); compound 0.02 µM): 58.4% | inhibition (LATS2 (human)): -2.3% | inhibition (DYRK2 (human); compound 0.001 µM): 8.7% | inhibition (DYRK2 (human); compound 0.02 µM): -6.4% | inhibition (ALK EML4 (human); compound 0.001 µM): -2% | inhibition (ALK EML4 (human); compound 0.02 µM): -3.9% | inhibition (MYLK2 (human); compound 0.001 µM): -4.8% | inhibition (MYLK2 (human); compound 0.02 µM): -2.6% | inhibition (JAK1 JH1 JH2 (human); compound 0.001 µM): -7.4% | inhibition (JAK1 JH1 JH2 (human); compound 0.02 µM): -3.3% | inhibition (PDGFRA (human); compound 0.001 µM): 33.1% | inhibition (EPHB4 (human); compound 0.001 µM): -7.3% | inhibition (EPHB4 (human); compound 0.02 µM): -5.5% | inhibition (MAP4K4 (human); compound 0.001 µM): -2.3% | inhibition (MAP4K4 (human); compound 0.02 µM): 1.2% | inhibition (PAK2 (human); compound 0.001 µM): -3.6% | inhibition (PAK2 (human); compound 0.02 µM): 4.1% | inhibition (WNK1 (human); compound 0.001 µM): 4.1% | inhibition (WNK1 (human); compound 0.02 µM): 2.1% | inhibition (PAK1 (human); compound 0.001 µM): -1.5% | inhibition (PAK1 (human); compound 0.02 µM): -1.5% | inhibition (CIT (human); compound 0.001 µM): -2.2% | inhibition (CIT (human); compound 0.02 µM): -4.4% | inhibition (CAMK2G (human); compound 0.001 µM): 0.2% | inhibition (CAMK2G (human); compound 0.02 µM): -1.1% | inhibition (MAPK10 (human); compound 0.001 µM): -5% | inhibition (MAPK10 (human); compound 0.02 µM): -4.4% | inhibition (PLK3 (human); compound 0.001 µM): 3.7% | inhibition (PLK3 (human); compound 0.02 µM): -1.3% | inhibition (TAOK2 (human); compound 0.001 µM): -4.1% | inhibition (TAOK2 (human); compound 0.02 µM): -6.1% | inhibition (PDK2 (human); compound 0.001 µM): -2.9% | inhibition (PDK2 (human); compound 0.02 µM): -4.8% | inhibition (ALK NPM1 (human); compound 0.001 µM): 1.1% | inhibition (ALK NPM1 (human); compound 0.02 µM): -0.3% | inhibition (FLT1 (human); compound 0.001 µM): 25.3% | inhibition (FLT1 (human); compound 0.02 µM): 99.3% | inhibition (ROS1 (human); compound 0.001 µM): -0.6% | inhibition (ROS1 (human); compound 0.02 µM): 10.8% | inhibition (BRSK1 (human); compound 0.001 µM): -2.4% | inhibition (BRSK1 (human); compound 0.02 µM): 20.1% | inhibition (PRKAA2 (human); compound 0.001 µM): 4.5% | inhibition (PRKAA2 (human); compound 0.02 µM): 8.8% | inhibition (RPS6KB2 (human); compound 0.001 µM): 9.2% | inhibition (RPS6KB2 (human); compound 0.02 µM): 1.8% | inhibition (SRPK2 (human); compound 0.001 µM): -9.3% | inhibition (SRPK2 (human); compound 0.02 µM): -6.5% | inhibition (ALK (human); compound 0.001 µM): 2.5% | inhibition (ALK (human); compound 0.02 µM): 1.4%

CCN(CC)CCNC(=O)c1c(C)[nH]c(/C=C2\C(=O)Nc3ccc(F)cc32)c1C
inhibition (MAP4K2 (human); compound 0.2 µM): 69.5% | inhibition (CHEK2 (human); compound 0.2 µM): 78.8% | inhibition (CHEK2 (human); compound 4.0 µM): 98.8% | inhibition (MARK4 (human); compound 0.2 µM): 76.3% | inhibition (MARK4 (human); compound 4.0 µM): 100% | inhibition (PHKG1 (human); compound 0.2 µM): 91.8% | inhibition (PHKG1 (human); compound 4.0 µM): 96.9% | inhibition (ABL2 (human); compound 0.2 µM): 13.7% | inhibition (ABL2 (human); compound 4.0 µM): 66.6% | inhibition (DYRK2 (human); compound 0.2 µM): 25% | inhibition (DYRK2 (human); compound 4.0 µM): 87.4% | inhibition (ALK EML4 (human); compound 0.2 µM): 70.5% | inhibition (ALK EML4 (human); compound 4.0 µM): 100% | inhibition (MYLK2 (human); compound 0.2 µM): 81.9% | inhibition (JAK1 JH1 JH2 (human); compound 0.2 µM): 10.9% | inhibition (JAK1 JH1 JH2 (human); compound 4.0 µM): 70.4% | inhibition (PDGFRA (human); compound 0.2 µM): 100% | inhibition (MAP4K4 (human); compound 4.0 µM): 101% | inhibition (PAK2 (human); compound 0.2 µM): 1.8% | inhibition (PAK2 (human); compound 4.0 µM): 7.7% | inhibition (WNK1 (human); compound 0.2 µM): 3.2% | inhibition (WNK1 (human); compound 4.0 µM): 4.9% | inhibition (CAMK2B (human); compound 0.2 µM): 5.2% | inhibition (CAMK2B (human); compound 4.0 µM): 66.5% | inhibition (PAK1 (human); compound 0.2 µM): -2.8% | inhibition (PAK1 (human); compound 4.0 µM): 1.8% | inhibition (CIT (human); compound 0.2 µM): 2.2% | inhibition (CIT (human); compound 4.0 µM): 29.1% | inhibition (CAMK2G (human); compound 0.2 µM): 49.6% | inhibition (CAMK2G (human); compound 4.0 µM): 96.2% | inhibition (MAPK10 (human); compound 0.2 µM): -2.3% | inhibition (PLK3 (human); compound 0.2 µM): 0.9% | inhibition (PLK3 (human); compound 4.0 µM): 0.1% | inhibition (TAOK2 (human); compound 0.2 µM): 3.8% | inhibition (TAOK2 (human); compound 4.0 µM): 18.6% | inhibition (PDK2 (human); compound 0.2 µM): -1.2% | inhibition (PDK2 (human); compound 4.0 µM): 26% | inhibition (ALK NPM1 (human); compound 0.2 µM): 76% | inhibition (ALK NPM1 (human); compound 4.0 µM): 100% | inhibition (FLT1 (human); compound 0.2 µM): 90.4% | inhibition (FLT1 (human); compound 4.0 µM): 103% | inhibition (ROS1 (human); compound 0.2 µM): 18.4% | inhibition (ROS1 (human); compound 4.0 µM): 81.4% | inhibition (BTK (human); compound 0.2 µM): 2.7% | inhibition (BTK (human); compound 4.0 µM): 51.2% | inhibition (BRSK1 (human); compound 0.2 µM): 40% | inhibition (BRSK1 (human); compound 4.0 µM): 86.6% | inhibition (PRKAA2 (human); compound 0.2 µM): 82.6% | inhibition (PRKAA2 (human); compound 4.0 µM): 100% | inhibition (RPS6KB2 (human); compound 0.2 µM): 15.7% | inhibition (RPS6KB2 (human); compound 4.0 µM): 50% | inhibition (SRPK2 (human); compound 0.2 µM): -0.5% | inhibition (SRPK2 (human); compound 4.0 µM): 21.1% | inhibition (ALK (human); compound 0.2 µM): 82.2% | inhibition (ALK (human); compound 4.0 µM): 102%
